Legend:
[1] = target: T1, 14-3-3ζ-Rluc8:112-136F-mC complex (Homo sapiens, UniProt P63104); assay: Co-immunoprecipitation of 14-3-3ζ-Rluc8:112-136F-mC complex; format: cell-based; conditions: NIH-3T3 expressing BRET sensor, 20 μM, 3 h, vs DMSO
T1 construct: expressed in transfected cells; host or cells: NIH-3T3 fibroblasts, bi-directional pBI-CMV1 plasmid
T1 sequence (P63104 1-245): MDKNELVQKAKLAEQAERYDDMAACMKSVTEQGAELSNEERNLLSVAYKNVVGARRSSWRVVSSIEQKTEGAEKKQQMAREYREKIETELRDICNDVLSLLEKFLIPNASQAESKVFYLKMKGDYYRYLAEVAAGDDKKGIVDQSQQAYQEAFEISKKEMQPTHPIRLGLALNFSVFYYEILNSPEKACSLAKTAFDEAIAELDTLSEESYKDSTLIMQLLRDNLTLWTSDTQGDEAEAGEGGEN
Method: NIH-3T3 cells were plated in 10 cm culture dishes at a density of 550,000 cells per dish. Transfection was conducted 48 h post-seeding. At 48 h post-transfection, DMSO or FTY-720 (20 μM) was added to the culture media and incubated with cells expressing the BRET-sensor for 3 h. Cell lysates were collected using RIPA buffer (0.9% NaCl, 1% v/v triton X-100, 0.5% sodium deoxycholate, 0.1% SDS, and 0.6% tris base), supplemented with protease inhibitor cocktail (Sigma-Aldrich; #P8340). The protein concentration was determined using the Bradford assay. Equal amounts of protein (100 μg) were subjected to immunoprecipitation using 1 μg anti-GFP antibody per sample (Invitrogen; #A-11120) and protein A/G magnetic beads (Thermo Fisher Scientific, Massachusetts, USA; #80104G), according to the manufacturer’s instructions. Antibodies against GFP were used to precipitate mCitrine due to the high degree of sequence homology. Immunoprecipitated proteins were eluted by boiling the beads in 1 X Laemmli protein sample buffer (Bio-Rad, California, USA; #1610747) for 5 min. Eluted samples were resolved in 10% SDS-PAGE gels and transferred to PVDF membranes (Bio-Rad, California, USA; #10026933) using the Trans-Blot Turbo transfer system (Bio-Rad). […] Protein bands were detected using Clarity Max western ECL substrate. […]

[2] = test system: BAD translocation to mitochondria in NIH-3T3 cells; assay: Confocal imaging of BAD-mCitrine translocation to TMRE-labeled mitochondria in NIH-3T3; format: cell-based; conditions: NIH-3T3 expressing BAD-mCitrine; R18 10 µM, FTY720 2 µM; 24 h
Method: To visualize BAD translocation, 35 mm glass-bottom dishes (ibidi, Gräfelfing, Germany; #81158) were coated with 0.1 mg/mL Poly-D-lysine hydrobromide for 2 h at 37 °C. After coating, dishes were washed twice with sterilized water. Subsequently, cells transfected with BAD-mCitrine were seeded at a density of 20,000 cells per dish and incubated for 24 h to allow for cell attachment. For live-cell imaging, cells were then incubated for 1 h with the mitochondrial membrane potential dye tetramethylrhodamine ethyl ester (TMRE, Invitrogen; #T668) at a final concentration of 100 nM, according to the manufacturer’s instructions. Images were acquired on a Zeiss (Oberkochen, Germany) LSM-900 Airyscan inverted confocal microscope equipped with an environmental incubation system, laser lines including 488 and 561 nm, and an oil immersion 60×/1.40 Plan achromat objective. The signal from the YFP fluorophore (ex. 488 nm, det. 525–542 nm) and the TMRE (ex. 561 nm, det. 600–700 nm) were collected in super-resolution mode. The cell viability dye, DRAQ (BioLegend, California, USA; #424101), was added to the medium at a 1:1000 dilution from the commercial stock and incubated at room temperature for 30 min prior to live-cell imaging. To quantify the colocalization of BAD-mCitrine and the mitochondria labeled with the TMRE, the JACoP plugin in ImageJ was employed. […]

CCCCCCCCc1ccc(CCC(N)(CO)CO)cc1 [Fingolimod (FTY720), Fingolimod]
Abundance of 14-3-3ζ-Rluc8 within the co-immunoprecipitated complex [1]: reduced | BAD translocation to TMRE-labeled mitochondria [2]: promoted BAD translocation
